# Experimental data taken from US12599136B2, “Substituted isophthalic acid diamides and their use as herbicides” (Bayer Aktiengesellschaft, priority 2020, dated 2026).
# Experiments:
# Assay type in all cases: in vivo
# Hordeum murinum [1] = assay: Pre-emergence herbicidal action against HORMU; conditions: visual score after 3 weeks vs untreated controls
# In short: (§1)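 Pre-emergence soil-surface spray of formulated compound (WP or EC; 600 to 800 l/ha; 0.2% wetting agent) over seeds sown in sandy loam. After 3 weeks under greenhouse conditions, damage is estimated visually in percent against untreated plants.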
# Cyperus esculentus [2] = assay: Post-emergence herbicidal action against CYPES; conditions: visual assessment about 3 weeks after treatment
# In short: (§2)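 Spray, one-leaf stage: WP or EC compound in water, 600–800 l/ha, 0.2% wetting agent. Plants held about 3 weeks in the greenhouse, then visually rated in percent of kill compared with untreated controls.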
# Abutilon theophrasti [3] = assay: Post-emergence herbicidal action against ABUTH
# In short: as §2
# Polygonum convolvulus [4] = assay: Pre-emergence herbicidal action against POLCO; conditions: 320 g/ha
# In short: as §1
# Viola tricolor [5] = assay: Pre-emergence herbicidal action against VIOTR
# In short: as §1
# Stellaria media [6] = assay: Pre-emergence herbicidal action against STEME
# In short: as §1
# Lolium rigidum [7] = assay: Pre-emergence herbicidal action against LOLRI
# In short: as §1
# Stellaria media [8] = assay: Post-emergence herbicidal action against STEME; conditions: for Post-emergence action against STEME in %: visual assessment about 3 weeks after treatment
# In short: as §2
# Pharbitis purpurea [9] = assay: Pre-emergence herbicidal action against PHBPU; conditions: 320 g/ha; visual score after 3 weeks vs untreated controls
# In short: as §1
# Polygonum convolvulus [10] = assay: Post-emergence herbicidal action against POLCO; conditions: 80 g/ha, visual assessment about 3 weeks after treatment
# In short: as §2
# Amaranthus retroflexus [11] = assay: Pre-emergence herbicidal action against AMARE; conditions: visual score after 3 weeks vs untreated controls
# In short: as §1
# Abutilon theophrasti [12] = assay: Pre-emergence herbicidal action against ABUTH; conditions: visual score after 3 weeks vs untreated controls
# In short: as §1
# Veronica persica [13] = assay: Post-emergence herbicidal action against VERPE; conditions: visual assessment about 3 weeks after treatment
# In short: as §2
# Amaranthus retroflexus [14] = assay: Post-emergence herbicidal action against AMARE; conditions: visual assessment about 3 weeks after treatment
# In short: as §2
# Lolium rigidum [15] = assay: Post-emergence herbicidal action against LOLRI; conditions: 80 g/ha
# In short: as §2
# Echinochloa crus-galli [16] = assay: Post-emergence herbicidal action against ECHCG; conditions: visual assessment about 3 weeks after treatment
# In short: as §2
# Viola tricolor [17] = assay: Post-emergence herbicidal action against VIOTR
# In short: as §2
# Alopecurus myosuroides [18] = assay: Post-emergence herbicidal action against ALOMY
# In short: as §2
# Cyperus esculentus [19] = assay: Pre-emergence herbicidal action against CYPES; conditions: 320 g/ha; visual score after 3 weeks vs untreated controls
# In short: as §1
# Veronica persica [20] = assay: Pre-emergence herbicidal action against VERPE; conditions: 320 g/ha
# In short: as §1
# Matricaria inodora [21] = assay: Pre-emergence herbicidal action against MATIN; conditions: visual score after 3 weeks vs untreated controls
# In short: as §1
# Avena fatua [22] = assay: Post-emergence herbicidal action against AVEFA; conditions: for Post-emergence action against AVEFA in %: visual assessment about 3 weeks after treatment
# In short: as §2
# Avena fatua [23] = assay: Pre-emergence herbicidal action against AVEFA; conditions: visual score after 3 weeks vs untreated controls
# In short: as §1
# Matricaria inodora [24] = assay: Post-emergence herbicidal action against MATIN; conditions: for Post-emergence action against MATIN in %: visual assessment about 3 weeks after treatment
# In short: as §2
# Echinochloa crus-galli [25] = assay: Pre-emergence herbicidal action against ECHCG; conditions: visual score after 3 weeks vs untreated controls
# In short: as §1
# Hordeum murinum [26] = assay: Post-emergence herbicidal action against HORMU
# In short: as §2
# Setaria viridis [27] = assay: Pre-emergence herbicidal action against SETVI
# In short: as §1
# Setaria viridis [28] = assay: Post-emergence herbicidal action against SETVI; conditions: for Post-emergence action against SETVI in %: visual assessment about 3 weeks after treatment
# In short: as §2
# Alopecurus myosuroides [29] = assay: Pre-emergence herbicidal action against ALOMY; conditions: visual score after 3 weeks vs untreated controls
# In short: as §1
# Pharbitis purpurea [30] = assay: Post-emergence herbicidal action against PHBPU; conditions: for Post-emergence action against PHBPU in %: visual assessment about 3 weeks after treatment
# In short: as §2
# [31] = comparative experiment, 5 g a.i./ha
smiles,measurement,setting,value
CCn1nnnc1NC(=O)c1ccc(C(F)(F)F)c(C(=O)N(C)C)c1Cl [Example 2-123],Pre-emergence action against HORMU,Hordeum murinum [1]; 80 g/ha,80%
same,Pre-emergence action against HORMU,Hordeum murinum [1]; 320 g/ha,100%
same,Post-emergence action against CYPES in %,Cyperus esculentus [2]; 5 g/ha,80%
same,Post-emergence action against CYPES in %,Cyperus esculentus [2]; 20 g/ha,80%
same,Post-emergence action against CYPES in %,Cyperus esculentus [2]; 80 g/ha,90%
same,Post-emergence action against ABUTH,Abutilon theophrasti [3]; 5 g/ha,100%
same,Post-emergence action against ABUTH,Abutilon theophrasti [3]; 20 g/ha,100%
same,Post-emergence action against ABUTH,Abutilon theophrasti [3]; 80 g/ha,100%
same,Pre-emergence action against POLCO,Polygonum convolvulus [4],80%
same,Pre-emergence action against VIOTR,Viola tricolor [5]; 80 g/ha,90%
same,Pre-emergence action against VIOTR,Viola tricolor [5]; 320 g/ha,100%
same,Pre-emergence action against STEME,Stellaria media [6]; 20 g/ha,90%
same,Pre-emergence action against STEME,Stellaria media [6]; 80 g/ha,100%
same,Pre-emergence action against STEME,Stellaria media [6]; 320 g/ha,100%
same,Pre-emergence action against LOLRI,Lolium rigidum [7]; 80 g/ha,80%
same,Pre-emergence action against LOLRI,Lolium rigidum [7]; 320 g/ha,100%
same,Post-emergence action against STEME in %,Stellaria media [8]; 5 g/ha,100%
same,Post-emergence action against STEME in %,Stellaria media [8]; 20 g/ha,100%
same,Post-emergence action against STEME in %,Stellaria media [8]; 80 g/ha,100%
same,Herbicidal action against STEME,Stellaria media [8]; [31],100
same,Pre-emergence action against PHBPU,Pharbitis purpurea [9],80%
same,Post-emergence action against POLCO in %,Polygonum convolvulus [10],90%
same,Pre-emergence action against AMARE,Amaranthus retroflexus [11]; 20 g/ha,90%
same,Pre-emergence action against AMARE,Amaranthus retroflexus [11]; 80 g/ha,100%
same,Pre-emergence action against AMARE,Amaranthus retroflexus [11]; 320 g/ha,100%
same,Pre-emergence action against ABUTH,Abutilon theophrasti [12]; 20 g/ha,100%
same,Pre-emergence action against ABUTH,Abutilon theophrasti [12]; 80 g/ha,100%
same,Pre-emergence action against ABUTH,Abutilon theophrasti [12]; Dosage column 320 g/ha (heading prints 3200 g/ha),100%
same,Post-emergence action against VERPE in %,Veronica persica [13]; 20 g/ha,80%
same,Post-emergence action against VERPE in %,Veronica persica [13]; 80 g/ha,100%
same,Post-emergence action against AMARE in %,Amaranthus retroflexus [14]; 5 g/ha,100%
same,Post-emergence action against AMARE in %,Amaranthus retroflexus [14]; 20 g/ha,100%
same,Post-emergence action against AMARE in %,Amaranthus retroflexus [14]; 80 g/ha,100%
same,Post-emergence action against LOLRI in %,Lolium rigidum [15],100%
same,Post-emergence action against ECHCG in %,Echinochloa crus-galli [16]; 5 g/ha,100%
same,Post-emergence action against ECHCG in %,Echinochloa crus-galli [16]; 20 g/ha,100%
same,Post-emergence action against ECHCG in %,Echinochloa crus-galli [16]; 80 g/ha,100%
same,Post-emergence action against VIOTR in %,Viola tricolor [17]; 20 g/ha,100%
same,Post-emergence action against VIOTR in %,Viola tricolor [17]; 80 g/ha,100%
same,Post-emergence action against ALOMY,Alopecurus myosuroides [18]; 5 g/ha,90%
same,Post-emergence action against ALOMY,Alopecurus myosuroides [18]; 20 g/ha,100%
same,Post-emergence action against ALOMY,Alopecurus myosuroides [18]; 80 g/ha,100%
same,Herbicidal action against ALOMY,Alopecurus myosuroides [18]; [31],90
same,Pre-emergence action against CYPES,Cyperus esculentus [19],80%
same,Pre-emergence action against VERPE,Veronica persica [20],100%
same,Pre-emergence action against MATIN,Matricaria inodora [21]; 80 g/ha,100%
same,Pre-emergence action against MATIN,Matricaria inodora [21]; 320 g/ha,100%
same,Post-emergence action against AVEFA in %,Avena fatua [22]; 5 g/ha,80%
same,Post-emergence action against AVEFA in %,Avena fatua [22]; 20 g/ha,100%
same,Post-emergence action against AVEFA in %,Avena fatua [22]; 80 g/ha,100%
same,Herbicidal action against AVEFA,Avena fatua [22]; [31],80
same,Pre-emergence action against AVEFA,Avena fatua [23]; 80 g/ha,90%
same,Pre-emergence action against AVEFA,Avena fatua [23]; 320 g/ha,100%
same,Post-emergence action against MATIN in %,Matricaria inodora [24]; 5 g/ha,90%
same,Post-emergence action against MATIN in %,Matricaria inodora [24]; 20 g/ha,90%
same,Post-emergence action against MATIN in %,Matricaria inodora [24]; 80 g/ha,100%
same,Herbicidal action against MATIN,Matricaria inodora [24]; [31],90
same,Pre-emergence action against ECHCG,Echinochloa crus-galli [25]; 20 g/ha,80%
same,Pre-emergence action against ECHCG,Echinochloa crus-galli [25]; 80 g/ha,100%
same,Pre-emergence action against ECHCG,Echinochloa crus-galli [25]; 320 g/ha,100%
same,Post-emergence action against HORMU in %,Hordeum murinum [26]; 20 g/ha,90%
same,Post-emergence action against HORMU in %,Hordeum murinum [26]; 80 g/ha,100%
same,Pre-emergence action against SETVI,Setaria viridis [27]; 20 g/ha,90%
same,Pre-emergence action against SETVI,Setaria viridis [27]; 80 g/ha,100%
same,Pre-emergence action against SETVI,Setaria viridis [27]; 320 g/ha,100%
same,Post-emergence action against SETVI in %,Setaria viridis [28]; 5 g/ha,100%
same,Post-emergence action against SETVI in %,Setaria viridis [28]; 20 g/ha,100%
same,Post-emergence action against SETVI in %,Setaria viridis [28]; 80 g/ha,100%
same,Herbicidal action against SETVI,Setaria viridis [28]; [31],100
same,Pre-emergence action against ALOMY,Alopecurus myosuroides [29]; 80 g/ha,90%
same,Pre-emergence action against ALOMY,Alopecurus myosuroides [29]; 320 g/ha,100%
same,Post-emergence action against PHBPU in %,Pharbitis purpurea [30]; 5 g/ha,80%
same,Post-emergence action against PHBPU in %,Pharbitis purpurea [30]; 20 g/ha,90%
same,Post-emergence action against PHBPU in %,Pharbitis purpurea [30]; 80 g/ha,100%
same,Herbicidal action against PHBPU,Pharbitis purpurea [30]; [31],80
